Reference: paper PMC4959548 (Biochemical pharmacology, 2015)

T1: OATP1B3 (Homo sapiens, UniProt Q9NPD5)
T1 sequence (Q9NPD5 1-702): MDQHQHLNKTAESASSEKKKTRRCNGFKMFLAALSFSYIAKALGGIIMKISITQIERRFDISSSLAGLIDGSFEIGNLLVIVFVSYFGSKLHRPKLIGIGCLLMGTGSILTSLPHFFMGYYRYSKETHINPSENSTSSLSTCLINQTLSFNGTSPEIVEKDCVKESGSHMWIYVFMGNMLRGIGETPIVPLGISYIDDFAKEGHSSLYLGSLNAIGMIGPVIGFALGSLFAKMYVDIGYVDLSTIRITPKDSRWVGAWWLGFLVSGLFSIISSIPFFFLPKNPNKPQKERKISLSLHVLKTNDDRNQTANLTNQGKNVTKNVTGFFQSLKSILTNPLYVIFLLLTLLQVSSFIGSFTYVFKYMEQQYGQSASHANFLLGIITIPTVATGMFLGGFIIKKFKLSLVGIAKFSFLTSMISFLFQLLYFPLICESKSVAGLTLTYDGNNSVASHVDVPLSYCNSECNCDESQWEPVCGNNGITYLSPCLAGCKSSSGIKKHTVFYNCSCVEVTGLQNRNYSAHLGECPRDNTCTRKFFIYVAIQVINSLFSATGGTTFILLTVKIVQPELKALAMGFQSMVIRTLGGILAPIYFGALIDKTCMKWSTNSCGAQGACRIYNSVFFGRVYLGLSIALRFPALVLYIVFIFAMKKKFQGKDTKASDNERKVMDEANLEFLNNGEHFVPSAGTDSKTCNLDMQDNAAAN

T2: OATP1B1 (Homo sapiens, UniProt Q9Y6L6)
T2 sequence (Q9Y6L6 1-691): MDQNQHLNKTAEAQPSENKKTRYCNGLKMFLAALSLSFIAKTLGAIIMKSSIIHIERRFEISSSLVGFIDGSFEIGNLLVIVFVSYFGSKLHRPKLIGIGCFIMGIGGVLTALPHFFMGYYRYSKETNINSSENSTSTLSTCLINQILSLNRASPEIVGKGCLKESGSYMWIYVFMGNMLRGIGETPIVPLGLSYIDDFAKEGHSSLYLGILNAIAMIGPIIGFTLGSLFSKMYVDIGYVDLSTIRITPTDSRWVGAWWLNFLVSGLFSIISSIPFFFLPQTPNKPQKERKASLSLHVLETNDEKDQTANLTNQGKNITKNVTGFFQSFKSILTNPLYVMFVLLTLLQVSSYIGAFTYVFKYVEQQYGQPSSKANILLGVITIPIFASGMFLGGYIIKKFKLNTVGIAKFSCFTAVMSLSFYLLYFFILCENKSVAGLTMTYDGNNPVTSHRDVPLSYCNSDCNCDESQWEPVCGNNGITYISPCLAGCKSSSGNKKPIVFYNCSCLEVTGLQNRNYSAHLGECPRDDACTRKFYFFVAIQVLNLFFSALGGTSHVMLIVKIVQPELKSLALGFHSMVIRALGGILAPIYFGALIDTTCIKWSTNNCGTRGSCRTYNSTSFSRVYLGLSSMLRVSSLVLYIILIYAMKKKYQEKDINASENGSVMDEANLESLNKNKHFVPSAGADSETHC


What was measured:
Assay in all cases: flow cytometry uptake in Sf9 cells expressing the transporter
[1] = target: T1, OATP1B3; format: cell-based
[2] = target: T2, OATP1B1; format: cell-based
[3] = substrate: O=C1OC2(c3ccc(O)cc3Oc3cc(O)ccc32)c2ccccc21; format: cell-based, Homo sapiens

Molecule	Km [1] [µM]	Km [2] [µM]	Km [3] [µM]
O=C1OC2(c3ccc(O)cc3Oc3cc(O)ccc32)c2ccccc21 [Na-Fluo, sodium fluorescein]	38.6		
fluorescein-methotrexate [Fl-MTX]	0.53	0.23	
OATP1B1 (Homo sapiens) (protein) MDQNQHLNKTAEAQPSENKKTRYCNGLKMFLAALSLSFIAKTLGAIIMKSSIIHIERRFEISSSLVGFIDGSFEIGNLLVIVFVSYFGSKLHRPKLIGIGCFIMGIGGVLTALPHFFMGYYRYSKETNINSSENSTSTLSTCLINQILSLNRASPEIVGKGCLKESGSYMWIYVFMGNMLRGIGETPIVPLGLSYIDDFAKEGHSSLYLGILNAIAMIGPIIGFTLGSLFSKMYVDIGYVDLSTIRITPTDSRWVGAWWLNFLVSGLFSIISSIPFFFLPQTPNKPQKERKASLSLHVLETNDEKDQTANLTNQGKNITKNVTGFFQSFKSILTNPLYVMFVLLTLLQVSSYIGAFTYVFKYVEQQYGQPSSKANILLGVITIPIFASGMFLGGYIIKKFKLNTVGIAKFSCFTAVMSLSFYLLYFFILCENKSVAGLTMTYDGNNPVTSHRDVPLSYCNSDCNCDESQWEPVCGNNGITYISPCLAGCKSSSGNKKPIVFYNCSCLEVTGLQNRNYSAHLGECPRDDACTRKFYFFVAIQVLNLFFSALGGTSHVMLIVKIVQPELKSLALGFHSMVIRALGGILAPIYFGALIDTTCIKWSTNNCGTRGSCRTYNSTSFSRVYLGLSSMLRVSSLVLYIILIYAMKKKYQEKDINASENGSVMDEANLESLNKNKHFVPSAGADSETHC			25.73
